Measured values taken from the supplement of paper PMC10949913.

Assays:
NCI-H295R = assay: area under concentration-response curve (viability) (AUC (a.u.)); higher = less active; conditions: 48 h
Method in brief: (§1)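 Luminescence from CellTiter-Glo, read after 48 h, measured three adrenocortical carcinoma cell lines treated in 1,536-well plates with library compounds at 11 concentrations. Values were normalised per plate to vehicle and empty-well controls. The AC50 and area under the curve come from fitted concentration-response curves in inhibitory or non-responding classes only.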

CU-ACC2 = assay: as above; conditions: 48 h
Method in brief: as §1

Compound | area under concentration-response curve (NCI-H295R) | area under concentration-response curve (CU-ACC2)
NC(=O)C/1=C(O)/[C@]2(O)[C@@H](C[C@@H]\3CC4=C(C(=CC=C4)O)\C(=C3C2=O)O)CC1=O | 586 | 640
COC(=O)N(CC(=O)O)Cc1cccc(OCc2nc(-c3ccc(Cl)cc3)oc2C)c1 | 452 | 553
O=C(O)CCNc1cc(N2CCc3ccccc3CC2)nc(-c2ccccn2)n1 | 490 | 486
O=C(O)c1cnn(-c2nc3cc(Cl)c(OC(F)(F)F)cc3[nH]2)c1 | 548 | 605
C[C@]12CCC3c4ccc(O)cc4CCC3C1CCC2=O (stereo not given in full) | 508 | 565
CC[S+]([O-])(=O)N1CCC(CC1)C(C)[N]2C(=C(C(=O)NC\C3=C(OC)\C=C(\C)NC3=O)C4=C2C=CC=C4)C (stereo not given) | 511 | 562
CC[C@H](NC(=O)[C@H](C)NC)C(=O)N1C[C@@H](O)C[C@H]1Cc1c(-c2[nH]c3cc(F)ccc3c2C[C@@H]2C[C@H](O)CN2C(=O)[C@H](CC)NC(=O)[C@H](C)NC)[nH]c2cc(F)ccc12 | 610 | 602
COc1ccc2[nH]c([S+]([O-])Cc3ncc(C)c(OC)c3C)nc2c1 (stereo not given) | 576 | 624
CC/C(=C(\c1ccccc1)c1ccc(OCCN(C)C)cc1)c1ccccc1 | 554 | 455
CC(=O)Oc1ccccc1C(=O)Nc1ncc([N+](=O)[O-])s1 | 590 | 634
C/C(NNC(=O)c1cccc([S+](=O)([O-])N2CCOCC2)c1)=C1\C=C(Cl)C=CC1=O | 545 | 585
COC1=CC2=C(C=C1OCCCN3CCCC3)\N=C(N)/C24CCC4 | 547 | 578
CN1C(=O)COc2c(C(=O)NC3CN4CCC3CC4)cc(Cl)cc21 (stereo not given) | 533 | 550
COc1cc2ncnc(Nc3cccc(Cl)c3F)c2cc1OC(=O)N1CCN(C)C[C@H]1C | 531 | 610
C#Cc1cccc(Nc2ncnc3cc(OCCOC)c(OCCOC)cc23)c1 | 550 | 623
CCc1ccc2nc(Nc3cc(Cc4ccccc4)nc(N[C@H]4CC[C@H](O)CC4)n3)sc2c1 | 580 | 620
CC1CC2=CC=CC=C2N1C(=O)C\C3=N\C(=O)\C=C(/N3)N4CCOCC4 (stereo not given) | 548 | 579
Nc1nc(NCCNc2ncc(-n3ccnc3)c(-c3ccc(Cl)cc3Cl)n2)ccc1[N+](=O)[O-] | 536 | 485
CC/1=C/2C[C@H]3C(=C)CCC[C@]3(C)/C=C2OC1=O | 524 | 593
CN1CCN(c2ccc([N+](=O)[O-])c3no[n+]([O-])c23)CC1 | 583 | 630
CNC(=O)c1ccc2cc(C3(O)CCn4cncc43)ccc2c1 (stereo not given) | 556 | 599
CC[C@H](NC1=C2[NH]C=NC2=NC=N1)/C3=C(/C(=O)C4=CC=CC=C4O3)C5=CC=CC(=C5)F | 488 | 432
NC\1=N\C(=O)N(\C=C1)[C@@H]2O[C@H](CO)[C@@H](O)[C@@H]2O | 504 | 551

Compound | area under concentration-response curve (NCI-H295R) | area under concentration-response curve (CU-ACC2)
CC1=C(C=CC=C1)N2/N=C(\C=C/C2=O)C3=C4NC[C@@H](CO)C[N]4N=C3C5=CC=C(F)C=C5 | 435 | 422
NNC(=O)c1ccncc1 | 554 | 500
CN(C(Cc1ccc(OS(=O)(=O)c2cccc3cnccc23)cc1)C(=O)N1CCN(c2ccccc2)CC1)S(=O)(=O)c1cccc2cnccc12 (stereo not given) | 576 | 627
Cc1ccc2c(=O)c3cccc(CC(=O)O)c3oc2c1C | 486 | 540
Cc1cc(O)c2c(c1)C(=O)c1cccc(O)c1C2=O | 552 | 604
Cn1cnc(-c2cc3nccc(Oc4ccc(NC(=S)NC(=O)Cc5ccccc5)cc4F)c3s2)c1 | 412 | 359
CCC(c1ccc(O)cc1)C(CC)c1ccc(O)cc1 (stereo not given) | 607 | 656
Cc1cc(NC(=O)Nc2ccc(N(C)C)cc2)c2cc(F)cc(F)c2n1 | 613 | 667
O=C1c2c(O)cc(O)cc2O[C@H](c2ccc(O)c(O)c2)[C@H]1O | 539 | 583
C[C@@H](NC1=CC=CC=C1C(O)=O)C/2=C/C(=C\N3C(=O)/C=C(\N=C23)N4CCOCC4)C | 543 | 535
C=Cc1cc(O)cc2nc(-c3ccc(O)c(F)c3)oc12 | 550 | 587
C[C@]12CCC\3=C\4CCC(=O)\C=C4CC[C@H]3[C@@H]1CC[C@@]2(O)CC#N | 606 | 649
CCc1cccc(CC)c1NC(=O)N1Cc2[nH]nc(NC(=O)c3ccc(N4CCN(C)CC4)cc3)c2C1 | 597 | 614
Nc1nc(N)c2nc(-c3cccc(Cl)c3)c(N)nc2n1 | 520 | 596
NCCOc1cc(C(=O)Nc2cc(OCCN)c3ccccc3n2)nc(C(=O)Nc2cc(OCCN)c3ccccc3n2)c1 | 507 | 454
O=NN(CCCl)C(=O)NC1CCCCC1 | 538 | 503
CC[C@]12CC[C@H]3[C@@H](CCC/4=C/C(=O)CC[C@H]34)[C@@H]1\C=C/[C@@]2(O)C#C | 602 | 623
O=C(NC[C@H](O)CN1CCc2ccccc2C1)c1ccnc(NC2CCC2)c1 | 539 | 535
CCC1(c2ccccc2)C(=O)NCNC1=O | 521 | 566
CC[C@H](NC1=C2N=C[NH]C2=NC=N1)C/3=N/C4=C(C(=CC=C4)F)C(=O)N3C5=CC=CC=C5 | 536 | 582
CCN(CC)CCCC(C)Nc1nc(C)cc(Nc2ccc3nc(C)cc(N)c3c2)n1 (stereo not given) | 507 | 478
NC(=S)N/N=C/c1ncccc1N | 440 | 442
